The supplement of paper PMC10307832

Key:
Assay in all cases: relative viability (nuclei count vs DMSO), 5 days (fraction); higher = more cells survive
[1] = compound: CC1=CC(=CC=C1)NC2=NC(=CS2)C3=CC=NC=C3 + CC(=O)Nc1cccc(-n2c(=O)n(C3CC3)c(=O)c3c(Nc4ccc(I)cc4F)n(C)c(=O)c(C)c32)c1 [Trametinib] (partner 0.02 µM)
Outline: (§1)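 One day after seeding in 1536-well plates, lung cancer cell lines were dosed by pin tool. Dosing was either single-drug or a fixed anchor-drug dose plus five library-drug doses (not always all listed) in √10 steps. After 5 days, nuclei were stained in one fix-and-stain step and counted on 4× images, and relative viability is the nuclei count of treated wells over that of vehicle wells, given as the median of duplicate plates.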

Masitinib = compound: Cc1ccc(NC(=O)c2ccc(CN3CCN(C)CC3)cc2)cc1Nc1nc(-c2cccnc2)cs1 [Masitinib]
Outline: (§2)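 Lung cancer cell lines in 1536-well plates were exposed by pinning to five library-drug doses (not always all listed) √10 apart, following an overnight hold at 37 °C. MetaXpress counted Hoechst-stained nuclei from 4× images taken after 5 days without medium change. Viability is the median ratio of treated-well to vehicle-well nuclei across plates. Plates required control CV below 25% and at least one doubling.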

[2] = compound: CC1=CC(=CC=C1)NC2=NC(=CS2)C3=CC=NC=C3
Outline: as §2

Masitinib + Navitoclax = compound: Cc1ccc(NC(=O)c2ccc(CN3CCN(C)CC3)cc2)cc1Nc1nc(-c2cccnc2)cs1 [Masitinib] + CC1(C)CCC(c2ccc(Cl)cc2)=C(CN2CCN(c3ccc(C(=O)NS(=O)(=O)c4ccc(N[C@H](CCN5CCOCC5)CSc5ccccc5)c(S(=O)(=O)C(F)(F)F)c4)cc3)CC2)C1 [Navitoclax] (partner 0.5 µM)
Outline: as §1

| Cell Line | relative viability ([1]; first compound 0.08 µM) | relative viability ([1]; first compound 0.253 µM) | relative viability ([1]; first compound 0.8 µM) | relative viability ([1]; first compound 2.53 µM) | relative viability ([1]; first compound 8 µM) | relative viability (Masitinib; 0.01 µM) | relative viability (Masitinib; 0.03162 µM) | relative viability (Masitinib; 0.1 µM) | relative viability (Masitinib; 0.3162 µM) | relative viability (Masitinib; 1 µM) | relative viability ([2]; 0.08 µM) | relative viability ([2]; 0.253 µM) | relative viability ([2]; 0.8 µM) | relative viability ([2]; 2.53 µM) | relative viability ([2]; 8 µM) | relative viability (Masitinib + Navitoclax; first compound 0.01 µM) | relative viability (Masitinib + Navitoclax; first compound 0.03162 µM) | relative viability (Masitinib + Navitoclax; first compound 0.1 µM) | relative viability (Masitinib + Navitoclax; first compound 0.3162 µM) | relative viability (Masitinib + Navitoclax; first compound 1 µM) |
| --- | --- | --- | --- | --- | --- | --- | --- | --- | --- | --- | --- | --- | --- | --- | --- | --- | --- | --- | --- | --- |
| NCI-H2342 | 0.686 | 0.729 | 0.695 | 0.74 | 0.732 | 1.03 | 0.866 | 1.07 | 0.889 | 0.843 | 0.96 | 0.929 | 0.95 | 0.93 | 0.881 | – | – | – | – | – |
| NCI-H1793 | 0.451 | 0.353 | 0.348 | 0.345 | 0.394 | 0.886 | 0.804 | 0.878 | 0.978 | 0.795 | 0.75 | 0.801 | 0.898 | 0.816 | 0.841 | 0.456 | 0.446 | 0.401 | 0.41 | 0.404 |
| LU99A | 0.521 | 0.575 | 0.509 | 0.525 | 0.477 | 1.03 | 0.94 | 1.09 | 1.06 | 0.916 | 0.877 | 0.917 | 0.972 | 0.997 | 0.956 | 0.755 | 0.758 | 0.887 | 0.97 | 0.791 |
| HCC-366 | 0.357 | 0.273 | 0.183 | 0.214 | 0.168 | 0.729 | 1.14 | 0.75 | 0.977 | 0.994 | 0.979 | 0.956 | 1.03 | 1.02 | 0.931 | 1.04 | 1.03 | 1.2 | 1.09 | 1 |
| 201T | 0.75 | 0.76 | 0.76 | 0.778 | 0.659 | 0.79 | 1.03 | 0.825 | 0.783 | 0.976 | 0.939 | 0.959 | 0.959 | 0.74 | 0.712 | 0.954 | 1.2 | 1.08 | 1.21 | 1.19 |
| HCC-827 | 0.497 | 0.529 | 0.564 | 0.542 | 0.53 | 0.868 | 1.03 | 0.888 | 0.959 | 1.01 | 0.963 | 0.982 | 0.951 | 1 | 0.7 | 0.924 | 0.996 | 1.01 | 0.942 | 1.01 |
| NCI-H650 | 0.837 | 1.07 | 1.04 | 0.956 | 0.964 | 0.998 | 0.963 | 1.09 | 1.04 | 0.899 | 0.805 | 0.881 | 1.01 | 0.752 | 1.15 | – | – | – | – | – |
| NCI-H2085 | 0.513 | 0.376 | 0.428 | 0.471 | 0.426 | 0.891 | 0.983 | 1.01 | 1.05 | 0.958 | 0.99 | 1 | 0.968 | 0.94 | 0.826 | 1.1 | 1.23 | 1.33 | 1.16 | 1.03 |
| NCI-H596 | 0.731 | 0.761 | 0.575 | 0.642 | 0.586 | 0.934 | 1.13 | 0.949 | 0.901 | 0.837 | 0.917 | 0.883 | 0.86 | 0.948 | 0.803 | 0.876 | 0.855 | 0.86 | 0.894 | 0.866 |
| SK-LU-1 | 0.479 | 0.492 | 0.361 | 0.568 | 0.351 | 1.05 | 1.05 | 1.13 | 1.24 | 1.02 | 0.996 | 1.03 | 0.702 | 1.1 | 0.968 | 0.927 | 1.05 | 1.04 | 1 | 0.869 |
| A-427 | 0.572 | 0.716 | 0.714 | 0.719 | 0.624 | – | 0.951 | 0.69 | 1.08 | 0.931 | 0.864 | 0.951 | 0.968 | 0.859 | 0.878 | – | 0.99 | – | 0.927 | 0.933 |
| NCI-H460 | 0.0961 | 0.0855 | 0.0743 | 0.0913 | 0.111 | 0.864 | 1.01 | 0.949 | 0.876 | 0.983 | 0.965 | 0.908 | 0.936 | 0.884 | 0.857 | 1.22 | 0.834 | 1.27 | 1.33 | 1.26 |
| NCI-H1734 | 0.679 | 0.712 | 0.677 | 0.681 | 0.614 | 0.957 | 1.08 | 1.06 | 0.976 | 0.942 | 0.864 | 0.952 | 1.03 | 0.988 | 0.96 | 0.861 | 0.779 | 1 | 0.933 | 0.842 |
| NCI-H1915 | 0.308 | 0.29 | 0.27 | 0.266 | 0.27 | – | 0.999 | – | 1 | 0.977 | 0.937 | 0.961 | 0.962 | 0.938 | 0.89 | – | 0.755 | 0.717 | 0.737 | 0.777 |
